{
  "source": "paper PMC2843756",
  "about": "(European journal of medicinal chemistry, 2010)",
  "key": {"[1]": {"system": "Mycobacteria tuberculosis H37Rv", "settings": "earlier work of the authors; cited from earlier work"}, "[2]": {"settings": "mice, po once a day, 100 mg/kg five days, 2 days rest, 200 mg/kg five days"}, "[3]": {"system": "Mycobacterium tuberculosis H37Rv", "test": "Microplate Alamar Blue Assay", "format": "cell-based", "settings": "for anti-TB activity (in words): qualitative statement; for MIC: medium not specified"}, "[4]": {"test": "Metabolic stability in rat liver microsomes", "format": "in vitro ADME, Sprague-Dawley rat", "settings": "in vitro metabolism"}, "[5]": {"system": "Mycobacterium vaccae 10670 and Mycobacterium fortuitum B", "test": "Agar diffusion assay", "format": "cell-based"}, "[6]": {"system": "panel of nontuberculosis mycobacteria and other bacteria (Gram positive and negative) as well as select strains of yeast", "test": "MIC against panel of nontuberculosis mycobacteria, other bacteria and yeast", "format": "cell-based", "settings": "all strains of the panel; MIC's equal to negative control"}, "VERO cells": {"system": "VERO cells", "test": "VERO cytotoxicity assay", "settings": "compared with non-methyl analog"}, "[7]": {"settings": "Mycobacterium tuberculosis, H37RV"}},
  "data": [
    {"compound": "CCCCCCCCCCCCCCCC(=O)N(O)CCCC[C@H](NC(=O)[C@@H]1COC(c2ccccc2O)=N1)C(=O)OC[C@H](NC(=O)OC(C)(C)C)C(=O)N[C@H]1CCCCN(O)C1=O", "note": "[Compound 2]", "values": [
      {"measurement": "effect on growth of Mycobacteria tuberculosis H37Rv", "setting": "[1]", "result": "potent inhibition of TB growth"}
    ]},
    {"compound": "O=C(OCc1ccccc1)[C@@H]1COC(c2ccccc2OCc2ccccc2)=N1", "note": "[Compound 3, (S)-Benzyl 2-(2-(benzyloxy)phenyl)-4,5-dihydrooxazole-4-carboxylate]", "values": [
      {"measurement": "tolerability (body weight, gross appearance and behavior)", "setting": "[2]", "result": "well tolerated"}
    ]},
    {"compound": "O=C(O)[C@@H]1COC(c2ccccc2O)=N1", "note": "[Compound 4]", "values": [
      {"measurement": "anti-TB activity (in words)", "setting": "[3]", "result": "lost all activity"}
    ]},
    {"compound": "COC(=O)[C@@H]1COC(c2ccccc2OCc2ccccc2)=N1", "note": "[Compound 12]", "values": [
      {"measurement": "anti-TB activity (in words)", "setting": "[3]", "result": "considerably less active"}
    ]},
    {"compound": "O=C(OCc1ccccc1)[C@@H]1COC(c2ccccc2)=N1", "note": "[Compound 15, (S)-Benzyl 4,5-dihydro-2-phenyloxazole-4-carboxylate]", "values": [
      {"measurement": "major metabolite", "setting": "[4]", "result": "the corresponding carboxylic acid"},
      {"measurement": "zones of inhibition", "setting": "[5]", "result": "some zones of inhibition"},
      {"measurement": "MIC against panel (in words)", "setting": "[6]", "result": "inactive"},
      {"measurement": "tolerability (body weight, gross appearance and behavior)", "setting": "[2]", "result": "well tolerated"}
    ]},
    {"compound": "COC(=O)[C@@H]1COC(c2cccc(Cl)c2)=N1", "note": "[Compound 19]", "values": [
      {"measurement": "anti-TB activity (in words)", "setting": "[3]", "result": "considerably less active"}
    ]},
    {"compound": "COC(=O)[C@@H]1COC(c2ccc([N+](=O)[O-])cc2)=N1", "note": "[Compound 27]", "values": [
      {"measurement": "anti-TB activity (in words)", "setting": "[3]", "result": "considerably less active"}
    ]},
    {"compound": "O=C(OCc1ccccc1)[C@@H]1COC(c2ccc(F)c([N+](=O)[O-])c2)=N1", "note": "[Compound 29, (S)-Benzyl 2-(4-fluoro-3-nitrophenyl)-4,5-dihydrooxazole-4-carboxylate]", "values": [
      {"measurement": "zones of inhibition", "setting": "[5]", "result": "some zones of inhibition"},
      {"measurement": "MIC against panel (in words)", "setting": "[6]", "result": "inactive"},
      {"measurement": "tolerability (body weight, gross appearance and behavior)", "setting": "[2]", "result": "well tolerated"}
    ]},
    {"compound": "O=C(OCc1ccccc1)[C@@H]1COC(Cc2ccccc2)=N1", "note": "[Compound 43]", "values": [
      {"measurement": "anti-TB activity (in words)", "setting": "[3]", "result": "diminished activity"}
    ]},
    {"compound": "COc1ccc(CC2=N[C@H](C(=O)OCc3ccccc3)CO2)cc1", "note": "[Compound 44]", "values": [
      {"measurement": "anti-TB activity (in words)", "setting": "[3]", "result": "diminished activity"}
    ]},
    {"compound": "O=C(OCc1ccccc1)c1coc(-c2cccc(Cl)c2)n1", "note": "[Compound 59]", "values": [
      {"measurement": "MIC", "setting": "[3]; [7]", "result": "< 1", "unit": "µM"}
    ]},
    {"compound": "COc1ccc(-c2nc(C(=O)OCc3ccccc3)co2)cc1", "note": "[Compound 60, Benzyl 2-(4-methoxyphenyl)oxazole-4-carboxylate]", "values": [
      {"measurement": "zones of inhibition", "setting": "[5]", "result": "some zones of inhibition"},
      {"measurement": "MIC against panel (in words)", "setting": "[6]", "result": "inactive"},
      {"measurement": "tolerability (body weight, gross appearance and behavior)", "setting": "[2]", "result": "well tolerated"}
    ]},
    {"compound": "O=C(OCc1ccccc1)c1coc(-c2ccccc2OCc2ccccc2)n1", "note": "[Compound 63, Benzyl 2-(2-(benzyloxy)phenyl)oxazole-4-carboxylate]", "values": [
      {"measurement": "zones of inhibition", "setting": "[5]", "result": "some zones of inhibition"},
      {"measurement": "MIC against panel (in words)", "setting": "[6]", "result": "inactive"},
      {"measurement": "tolerability (body weight, gross appearance and behavior)", "setting": "[2]", "result": "well tolerated"}
    ]},
    {"compound": "O=C(OCc1ccccc1)c1coc(-c2ccccc2)n1", "note": "[Compound 65, Benzyl 2-phenyloxazole-4-carboxylate]", "values": [
      {"measurement": "zones of inhibition", "setting": "[5]", "result": "some zones of inhibition"},
      {"measurement": "MIC against panel (in words)", "setting": "[6]", "result": "inactive"},
      {"measurement": "MIC", "setting": "[3]; [7]", "result": "< 1", "unit": "µM"},
      {"measurement": "MIC", "setting": "[3]", "result": "< 0.5", "unit": "µM"},
      {"measurement": "tolerability (body weight, gross appearance and behavior)", "setting": "[2]", "result": "well tolerated"}
    ]},
    {"compound": "O=C(OCc1ccccc1)c1coc(-c2ccc(F)c([N+](=O)[O-])c2)n1", "note": "[Compound 66, Benzyl 2-(4-fluoro-3-nitrophenyl)oxazole-4-carboxylate]", "values": [
      {"measurement": "zones of inhibition", "setting": "[5]", "result": "some zones of inhibition"},
      {"measurement": "MIC against panel (in words)", "setting": "[6]", "result": "inactive"},
      {"measurement": "MIC", "setting": "[3]; [7]", "result": "< 1", "unit": "µM"}
    ]},
    {"compound": "O=C(OCc1ccccc1)c1coc(-c2ccccc2Cl)n1", "note": "[Compound 68, Benzyl 2-(2-chlorophenyl)oxazole-4-carboxylate]", "values": [
      {"measurement": "zones of inhibition", "setting": "[5]", "result": "some zones of inhibition"},
      {"measurement": "MIC against panel (in words)", "setting": "[6]", "result": "inactive"},
      {"measurement": "MIC", "setting": "[3]; [7]", "result": "< 1", "unit": "µM"},
      {"measurement": "tolerability (body weight, gross appearance and behavior)", "setting": "[2]", "result": "well tolerated"}
    ]},
    {"compound": "O=C(OCc1ccccc1)c1coc(-c2ccc([N+](=O)[O-])cc2F)n1", "note": "[Compound 70]", "values": [
      {"measurement": "MIC", "setting": "[3]; [7]", "result": "< 1", "unit": "µM"}
    ]},
    {"compound": "O=C(OCc1ccccc1)c1coc(-c2cncc(-c3ccccc3)c2)n1", "note": "[Compound 78]", "values": [
      {"measurement": "MIC", "setting": "[3]; [7]", "result": "< 1", "unit": "µM"}
    ]},
    {"compound": "O=C(OCc1ccccc1)c1coc(-c2cccc(F)c2)n1", "note": "[Compound 89]", "values": [
      {"measurement": "MIC", "setting": "[3]; [7]", "result": "< 1", "unit": "µM"}
    ]},
    {"compound": "Cc1oc(-c2ccccc2)nc1C(=O)OCc1ccccc1", "note": "[Compound 109]", "values": [
      {"measurement": "toxicity in the VERO assay (in words)", "setting": "VERO cells", "result": "greatly increased toxicity"},
      {"measurement": "anti-TB activity (in words)", "setting": "[3]", "result": "diminished anti-TB activity"}
    ]},
    {"compound": "COc1ccc(-c2nc(C(=O)OCc3ccccc3)c(C)o2)cc1", "note": "[Compound 110]", "values": [
      {"measurement": "anti-TB activity (in words)", "setting": "[3]", "result": "diminished anti-TB activity"}
    ]},
    {"compound": "Cc1oc(-c2ccc(F)cc2[N+](=O)[O-])nc1C(=O)OCc1ccccc1", "note": "[Compound 111]", "values": [
      {"measurement": "anti-TB activity (in words)", "setting": "[3]", "result": "diminished anti-TB activity"}
    ]},
    {"compound": "CCCCCCCCCCCCCCCC(=O)N(O)CCCC[C@H](NC(=O)[C@@H]1COC(c2ccccc2O)=N1)C(=O)O[C@@H](C)CC(=O)N[C@H]1CCCCN(O)C1=O", "note": "[Mycobactin S]", "values": [
      {"measurement": "effect on growth of Mycobacteria tuberculosis H37Rv", "setting": "[1]", "result": "inhibits the growth"}
    ]},
    {"compound": "mycobactin T", "values": [
      {"measurement": "effect on growth of Mycobacteria tuberculosis H37Rv", "setting": "[1]", "result": "promotes growth"}
    ]}
  ]
}
